Experimental findings from patent publication US12496348B2, “Small molecule target bromo/acetyl proteins and uses thereof” (DANA-FARBER CANCER INSTITUTE, INC., priority 2019, dated 2025) are described below.

A value given as a limit tells only on which side of the number the result lay.

This assay has as its system Kelly Neuroblastoma cells. Nature of the assay: ATPlite Luminescence viability assay, Kelly neuroblastoma cells, 72 h. Type of assay: cell-based. The following applies: Kelly Neuroblastoma cells, ATPlite, class symbols, read-out: IC50 of inventive bispecific compounds. How it is done: Kelly Neuroblastoma cells were seeded at 1,000 cells per well in 384 well, white plates and were treated in a dose-dependent manner for 72 h.
Take `Cc1noc(C)c1-c1ccc2c(c1)nc(CCc1ccc(NC(=O)CCCCCCCCCCCNc3cccc4c3C(=O)N(C3CCC(=O)NC3=O)C4=O)cc1)n2CCN1CCOCC1` (stereo not shown) [Compound 23, N-(4-(2-(5-(3,5-dimethylisoxazol-4-yl)-1-(2-morpholinoethyl)-1H-benzo[d]imidazol-2-yl)ethyl)phenyl)-12-((2-(2,6-dioxopiperidin-3-yl)-1,3-dioxoisoindolin-4-yl)amino)dodecanamide]: the IC50 was > 10 µM. The value for `Cc1noc(C)c1-c1ccc2c(c1)nc(CCc1ccc(NCCNC(=O)CCCCCNc3cccc4c3C(=O)N(C3CCC(=O)NC3=O)C4=O)cc1)n2CC(C)N1CCOCC1` (stereo not shown) [Compound 28, N-(2-((4-(2-(5-(3,5-dimethylisoxazol-4-yl)-1-(2-morpholinopropyl)-1H-benzo[d]imidazol-2-yl)ethyl)phenyl)amino)ethyl)-6-((2-(2,6-dioxopiperidin-3-yl)-1,3-dioxoisoindolin-4-yl)amino)hexanamide] was > 10 µM; that for `Cc1noc(C)c1-c1ccn2c(NC3CCCCC3)c(CCc3ccc(NC(=O)CCOCCOCCOCCOCCOCCOCCNc4cccc5c4C(=O)N(C4CCC(=O)NC4=O)C5=O)cc3)nc2c1` (stereo not shown) [Compound 16, N-(4-(2-(3-(cyclohexylamino)-7-(3,5-dimethylisoxazol-4-yl)imidazo[1,2-a]pyridin-2-yl)ethyl)phenyl)-1-((2-(2,6-dioxopiperidin-3-yl)-1,3-dioxoisoindolin-4-yl)amino)-3,6,9,12,15,18-hexaoxahenicosan-21-amide] was 1 to 10 µM. For `Cc1noc(C)c1-c1ccn2c(NC3CCCCC3)c(CCc3ccc(NC(=O)c4ccc(CNc5cccc6c5C(=O)N(C5CCC(=O)NC5=O)C6=O)cc4)cc3)nc2c1` (stereo not shown) [Compound 18, N-(4-(2-(3-(cyclohexylamino)-7-(3,5-dimethylisoxazol-4-yl)imidazo[1,2-a]pyridin-2-yl)ethyl)phenyl)-4-(((2-(2,6-dioxopiperidin-3-yl)-1,3-dioxoisoindolin-4-yl)amino)methyl)benzamide], the IC50 was > 10 µM.

On to `Cc1noc(C)c1-c1ccn2c(NC3CCCCC3)c(CCc3ccc(NC(=O)CCCCCCCNc4cccc5c4C(=O)N(C4CCC(=O)NC4=O)C5=O)cc3)nc2c1` (stereo not shown) [Compound 13, N-(4-(2-(3-(cyclohexylamino)-7-(3,5-dimethylisoxazol-4-yl)imidazo[1,2-a]pyridin-2-yl)ethyl)phenyl)-8-((2-(2,6-dioxopiperidin-3-yl)-1,3-dioxoisoindolin-4-yl)amino)octanamide], for which the IC50 is > 10 µM. As for `COc1ccc(CCc2nc3cc(-c4c(C)noc4C)ccc3n2C[C@H](C)N2CCN(C(=O)CCOCCOCCOCCNc3ccc4c(c3)C(=O)N(C3CCC(=O)NC3=O)C4=O)CC2)cc1Cl` (stereo partly drawn) [Compound 19, 5-((2-(2-(2-(3-(4-((S)-1-(2-(3-chloro-4-methoxyphenethyl)-5-(3,5-dimethylisoxazol-4-yl)-1H-benzo[d]imidazol-1-yl)propan-2-yl)piperazin-1-yl)-3-oxopropoxy)ethoxy)ethoxy)ethyl)amino)-2-(2,6-dioxopiperidin-3-yl)isoindoline-1,3-dione], the IC50 is > 10 µM. Take `Cc1ncsc1-c1ccc(CNC(=O)[C@H]2C[C@H](O)CN2C(=O)[C@H](NC(=O)COCCOCCOCCNC(=O)CCC(=O)Nc2ccc(CCc3nc4cc(-c5c(C)noc5C)ccn4c3NC3CCCCC3)cc2)C(C)(C)C)cc1` [Compound 15, N1-(4-(2-(3-(cyclohexylamino)-7-(3,5-dimethylisoxazol-4-yl)imidazo[1,2-a]pyridin-2-yl)ethyl)phenyl)-N4-((R)-13-((2R,4S)-4-hydroxy-2-((4-(4-methylthiazol-5-yl)benzyl)carbamoyl)pyrrolidine-1-carbonyl)-14,14-dimethyl-11-oxo-3,6,9-trioxa-12-azapentadecyl)succinamide]: the concentration for half-maximal inhibition (IC50) was > 10 µM. Consider `Cc1noc(C)c1-c1ccc2c(c1)nc([C@@H]1CCCC(=O)N1c1ccc(F)c(F)c1)n2[C@H]1CC[C@H](NC(=O)CCCCCNc2cccc3c2C(=O)N(C2CCC(=O)NC2=O)C3=O)CC1` (stereo partly drawn) [Compound 30, N-((1S,4r)-4-(2-((S)-1-(3,4-difluorophenyl)-6-oxopiperidin-2-yl)-5-(3,5-dimethylisoxazol-4-yl)-1H-benzo[d]imidazol-1-yl)cyclohexyl)-6-((2-(2,6-dioxopiperidin-3-yl)-1,3-dioxoisoindolin-4-yl)amino)hexanamide], for which the IC50 was 0.1 to 1 µM. Consider `Cc1noc(C)c1-c1ccn2c(NC3CCCCC3)c(CCc3ccc(NC(=O)CCCCCNc4ccc5c(c4)C(=O)N(C4CCC(=O)NC4=O)C5=O)cc3)nc2c1` (stereo not shown) [Compound 14, N-(4-(2-(3-(cyclohexylamino)-7-(3,5-dimethylisoxazol-4-yl)imidazo[1,2-a]pyridin-2-yl)ethyl)phenyl)-6-((2-(2,6-dioxopiperidin-3-yl)-1,3-dioxoisoindolin-5-yl)amino)hexanamide], for which the IC50 lay within 1 to 10 µM. `Cc1noc(C)c1-c1ccn2c(NC3CCCCC3)c(CCc3ccc(NC(=O)CCCCCCCCCCCNC(=O)COc4cccc5c4C(=O)N(C4CCC(=O)NC4=O)C5=O)cc3)nc2c1` (stereo not shown) [Compound 10, N-(4-(2-(3-(cyclohexylamino)-7-(3,5-dimethylisoxazol-4-yl)imidazo[1,2-a]pyridin-2-yl)ethyl)phenyl)-12-(2-((2-(2,6-dioxopiperidin-3-yl)-1,3-dioxoisoindolin-4-yl)oxy)acetamido)dodecanamide]: the IC50 is > 10 µM. For the compound `COc1ccc(CCc2nc3cc(-c4c(C)noc4C)ccc3n2C[C@H](C)N2CCN(C(=O)CCCCCNc3ccc4c(c3)C(=O)N(C3CCC(=O)NC3=O)C4=O)CC2)cc1Cl` (stereo partly drawn) [Compound 21, 5-((6-(4-((S)-1-(2-(3-chloro-4-methoxyphenethyl)-5-(3,5-dimethylisoxazol-4-yl)-1H-benzo[d]imidazol-1-yl)propan-2-yl)piperazin-1-yl)-6-oxohexyl)amino)-2-(2,6-dioxopiperidin-3-yl)isoindoline-1,3-dione], the IC50 was > 10 µM. Turning to `Cc1noc(C)c1-c1ccc2c(c1)nc(CCc1ccc(NC(=O)CCCCCNc3cccc4c3C(=O)N(C3CCC(=O)NC3=O)C4=O)cc1)n2CC(C)N1CCOCC1` (stereo not shown) [Compound 25, N-(4-(2-(5-(3,5-dimethylisoxazol-4-yl)-1-(2-morpholinopropyl)-1H-benzo[d]imidazol-2-yl)ethyl)phenyl)-6-((2-(2,6-dioxopiperidin-3-yl)-1,3-dioxoisoindolin-4-yl)amino)hexanamide], the IC50 was > 10 µM. For the compound `Cc1noc(C)c1-c1ccn2c(NC3CCCCC3)c(CCc3ccc(NC(=O)C4CCC(Nc5cccc6c5C(=O)N(C5CCC(=O)NC5=O)C6=O)CC4)cc3)nc2c1` (stereo not shown) [Compound 17, N-(4-(2-(3-(cyclohexylamino)-7-(3,5-dimethylisoxazol-4-yl)imidazo[1,2-a]pyridin-2-yl)ethyl)phenyl)-4-((2-(2,6-dioxopiperidin-3-yl)-1,3-dioxoisoindolin-4-yl)amino)cyclohexane-1-carboxamide], the IC50 fell in the range of 1 to 10 µM. The value for `Cc1noc(C)c1-c1ccc2c(c1)nc([C@@H]1CCCC(=O)N1c1ccc(F)c(F)c1)n2[C@H]1CC[C@H](NC(=O)CCCCCCCCCNc2cccc3c2C(=O)N(C2CCC(=O)NC2=O)C3=O)CC1` (stereo partly drawn) [Compound 29, N-((1S,4r)-4-(2-((S)-1-(3,4-difluorophenyl)-6-oxopiperidin-2-yl)-5-(3,5-dimethylisoxazol-4-yl)-1H-benzo[d]imidazol-1-yl)cyclohexyl)-10-((2-(2,6-dioxopiperidin-3-yl)-1,3-dioxoisoindolin-4-yl)amino)decanamide] was < 0.1 µM; that for `Cc1noc(C)c1-c1ccc2nc(-c3ccc(N4CCN(C(=O)CCOCCOCCOCCNC(=O)COc5cccc6c5C(=O)N(C5CCC(=O)NC5=O)C6=O)CC4)cc3)c(NC3CCCCC3)n2c1` (stereo not shown) [Compound 4, N-(2-(2-(2-(3-(4-(4-(3-(cyclohexylamino)-6-(3,5-dimethylisoxazol-4-yl)imidazo[1,2-a]pyridin-2-yl)phenyl)piperazin-1-yl)-3-oxopropoxy)ethoxy)ethoxy)ethyl)-2-((2-(2,6-dioxopiperidin-3-yl)-1,3-dioxoisoindolin-4-yl)oxy)acetamide] was > 10 µM; that for `Cc1noc(C)c1-c1ccn2c(NCc3ccccc3)c(-c3ccc(N4CCN(C(=O)CCOCCOCCOCCOCCOCCOCCNc5cccc6c5C(=O)N(C5CCC(=O)NC5=O)C6=O)CC4)cc3)nc2c1` (stereo not shown) [Compound 5, 4-((21-(4-(4-(3-(benzylamino)-7-(3,5-dimethylisoxazol-4-yl)imidazo[1,2-a]pyridin-2-yl)phenyl)piperazin-1-yl)-21-oxo-3,6,9,12,15,18-hexaoxahenicosyl)amino)-2-(2,6-dioxopiperidin-3-yl)isoindoline-1,3-dione] was > 10 µM. As for `COc1ccc(CCc2nc3cc(-c4c(C)noc4C)ccc3n2C[C@H](C)N2CCN(C(=O)CCCCCCCCCNc3ccc4c(c3)C(=O)N(C3CCC(=O)NC3=O)C4=O)CC2)cc1Cl` (stereo partly drawn) [Compound 20, 5-((10-(4-((S)-1-(2-(3-chloro-4-methoxyphenethyl)-5-(3,5-dimethylisoxazol-4-yl)-1H-benzo[d]imidazol-1-yl)propan-2-yl)piperazin-1-yl)-10-oxodecyl)amino)-2-(2,6-dioxopiperidin-3-yl)isoindoline-1,3-dione], the IC50 was > 10 µM. Turning to `Cc1noc(C)c1-c1ccc2c(c1)nc(CCc1ccc(NC(=O)CCOCCOCCOCCNc3cccc4c3C(=O)N(C3CCC(=O)NC3=O)C4=O)cc1)n2CC(C)N1CCOCC1` (stereo not shown) [Compound 27, N-(4-(2-(5-(3,5-dimethylisoxazol-4-yl)-1-(2-morpholinopropyl)-1H-benzo[d]imidazol-2-yl)ethyl)phenyl)-3-(2-(2-(2-((2-(2,6-dioxopiperidin-3-yl)-1,3-dioxoisoindolin-4-yl)amino)ethoxy)ethoxy)ethoxy)propanamide], the IC50 is > 10 µM. Turning to `Cc1noc(C)c1-c1ccc2c(c1)nc(CCc1ccc(NC(=O)CCCCCCCCCCCNC(=O)COc3cccc4c3C(=O)N(C3CCC(=O)NC3=O)C4=O)cc1)n2CCN1CCOCC1` (stereo not shown) [Compound 24, N-(4-(2-(5-(3,5-dimethylisoxazol-4-yl)-1-(2-morpholinoethyl)-1H-benzo[d]imidazol-2-yl)ethyl)phenyl)-12-(2-((2-(2,6-dioxopiperidin-3-yl)-1,3-dioxoisoindolin-4-yl)oxy)acetamido)dodecanamide], the IC50 was > 10 µM.
